# Laboratory results published in US4145337A, “Aminoethylglycine containing polypeptides” (Hoffmann-La Roche Inc., priority 1977, dated 1979).
# Tests used:
# [1] = system: basal gastric secretion and gastrin release; settings: Bloom et al. 1974; cited from earlier work
# [2] = system: restraint-immersion induced gastric ulceration; assay: Mouse restraint-immersion test, antiulcerogenic activity; assay type: in vivo
# Description: In both studies CD-1 male mice weighing between 18-25 g were used. The mice were fasted for 19 hours prior to the initiation of restraint-immersion which involved restraining animals in rubber hoses and immersion in water (21° C.) to the height of the xiphoid process. In the first study, just prior to the initiation of the restraint-immersion procedure, mice received, via the subcutaneous route, graded amounts (0.1 to 10 mg/kg b.w.) of somatostatin (Compound A), Compound F, or vehicle (5% acacia); this administration was repeated two hours later. In the second study, the compounds (Compound A, Compound L, or vehicle) were administered only once, just prior to the initiation of the restraint-immersion procedure. Following four hours of restraint-immersion the animals (both studies) were killed and their stomachs examined for ulceration. The degree of ulceration was determined by the amount of visible blood present in the stomach and was rated on a scale of 0 to 4, with 0 being no detectable blood and 4 being a massive amount of blood. All compounds were dispersed in 5% acacia and administered at a dosage volume of 0.2 ml per 20 grams of body weight. The antiulcerogenic ED50 values were calculated using percent protection as the response and a computer program ("ED50") based on the probit method of Finney (Finney, "Probit Analysis", Cambridge University Press, 1971). The comparative effectiveness (relative potency R. P.) of somatostatin and Compound F (first study) or somatostatin and Compound L (second study) was determined from the dose responses using an "ED50" computer program.
# [3] = system: restraint ulcer formation; settings: cited from earlier work
# peptic ulcer bleeding = settings: infusion in man, Rasche et al. 1976; cited from earlier work
# gastric secretion = settings: chronic fistula dog, Torchiana et al. 1977; cited from earlier work
# gastric mucus production = assay: Stimulation of mucoprotein production: gastric mucosal carbohydrates and total protein; assay type: in vivo, rat; settings: 800 μg/kg i.p.
# Description: Overnight fasted rats received saline solutions of either Compound M or Compound A at the antisecretory dose of 800μg/kg administered intraperitoneally. Control rats were given only vehicle. All animals were sacrificed by decapitation 1 hour after dosing. After opening the abdomen the stomach was removed and its contents were washed away with 10 ml of a 0.85% NaCl solution. The excised stomachs were cut open along the greater curvature and the exposed gastric mucosa was carefully scraped. The scrapings were homogenized in 5 ml of the 0.85% NaCl solution and subjected to chemical analysis. Total hexoses were determined by the anthrone reaction, which is based on the formation in concentrated sulfuric acid of furfural derivatives which react with anthrone to form a blue-green color; this reaction has the advantage of being applied directly to the glycoprotein with color formation occuring concurrently with the liberation of sugars (Methods in Enzymology, Vol. VIII, pp. 4-5 1966). Fucose in the unhydrolyzed mucoprotein was determined by the Dische-Shettes cysteine-sulfuric acid reaction for methyl pentoses. This method allows accurate determination of fucose even in the presence of large amounts of hexoses and peptide material (Methods in Eznymology, Vol. VIII, pp 11-13 , 1966).
# Total protein was determined using the Lowry method.
# [4] = system: duodenal ulcers produced by prolonged administration of pentagastrin or histamine; settings: cats, continuous i.v. infusion 0.62 to 5.0 μg/kg-hr; cited from earlier work
# [5] = system: gastrointestinal bleeding from residual ulcers; settings: patient, 250 μg i.v. bolus then 250 μg per hour for 67 hours; cited from earlier work
# [6] = 1 hour after dosing, mucosal scrapings
structure (smiles),measurement,setting,value
"C[C@H](N)C(=O)NCC(=O)N[C@H]1CSSC[C@@H](C(=O)O)NC(=O)[C@H](CO)NC(=O)[C@H]([C@@H](C)O)NC(=O)[C@H](Cc2ccccc2)NC(=O)[C@H]([C@@H](C)O)NC(=O)[C@H](CCCCN)NC(=O)[C@H](Cc2c[nH]c3ccccc23)NC(=O)[C@H](Cc2ccccc2)NC(=O)[C@H](Cc2ccccc2)NC(=O)[C@H](CC(N)=O)NC(=O)[C@H](CCCCN)NC1=O [Compound A, somatostatin]",effect on basal gastric secretion and gastrin release,[1],inhibits basal gastric secretion and gastrin release
same,"prevention of restraint-immersion induced gastric ulceration, in words","[2]; first study, s.c. twice",effective in preventing restraint-immersion induced gastric ulceration
same,antiulcerogenic ED50,"[2]; first study: s.c. just prior to restraint-immersion, repeated two hours later, 4 h restraint-immersion",0.35 mg/kg
same,ED50,"[2]; second study: administered only once just prior to restraint-immersion, 4 h",6.70 mg/kg
same,ulcers relative to untreated animals,"[3]; 100 μg linear protamine-zinc-somatostatin/rat s.c. before, 3 h and 6 h, after 9 hours of immobilization",1/5
same,effect on restraint ulcer formation,"[3]; subcutaneous administration in rats, Zierden et al. 1976",prophylactic effect on restraint ulcer formation
same,effect on peptic ulcer bleeding,peptic ulcer bleeding,stop peptic ulcer bleeding
same,duration of inhibitory effects on gastric secretion,gastric secretion,short duration
same,"Fucose, gastric mucosal concentration (mean)",gastric mucus production; [6],46.2 μg/total sample
same,"Hexose, gastric mucosal concentration (mean)",gastric mucus production; [6],235.3 μg/total sample
same,"Total Protein, gastric mucosal concentration (mean)",gastric mucus production; [6],350.0 μg/total sample
same,"gastric mucosal carbohydrates versus control, in words",gastric mucus production; 1 hour after treatment,did not appear to influence concentration of carbohydrates
same,"gastric mucosal total protein versus control, in words",gastric mucus production; 1 hour after treatment,produced an increment of the total protein
same,prevention of duodenal ulcers,[4],effectively prevented the formation of duodenal ulcers
same,effect on bleeding,[5],immediate cessation of the bleeding after 1 hour
same,endoscopy at the end of treatment period,[5],two ulcers in the process of healing
